Experimental data published in patent US7811352B2, “Fertilizer compositions and methods of using” (priority 2005, dated 2010).
Marks after values point to notes of the source that are not given here.

Columns and labels:
Format in all cases: in vivo
Conditions in all cases: about two weeks after application
[1] = system: fairway height, creeping bentgrass; test: Injury rating of fairway height creeping bentgrass after fertilization (Example 6)
Procedure: (§1) In this Example, the efficacy of fertilizers on fairway height, creeping bentgrass was examined. Fertilizer compositions according to several embodiments of the present disclosure were prepared and compared to the commercial fertilizer products, urea 46-0-0 (granular) fertilizer, Lebanon fertilizer 21-0-12 (granular, commercially available from Lebanon Seaboard Corporation, Lebanon, Pa.) and Milorganite 6-2-0 (granular, commercially available from Milorganite, Milwaukee, Wis.). The fertilizer compositions were applied to turf prior to winter dormancy at a rate equivalent to supplying about 1.0 pounds of nitrogen (N) per 1000 square feet. Each of the fertilizer compositions were applied at substantially equal rates of lbs of nitrogen (N) per 1000 square feet. Table 3 illustrates the response of fairway height, creeping bentgrass to fertilization using various exemplary fertilizers of the present invention, taken about two weeks after application of the fertilizer. The letters in the Color and Injury columns correspond to Duncan's Multiple Range Test. Numbers (means) in a column followed by the same letter are not statistically different at P=0.05.

[2] = system: green height, creeping bentgrass; test: Color rating of green height creeping bentgrass after fertilization (Example 4)
Procedure: In this Example, the efficacy of fertilizers on green height, creeping bentgrass was examined. Fertilizer compositions according to several embodiments of the present disclosure were prepared and compared to the commercial fertilizer products, urea 46-0-0 (granular) fertilizer, Lebanon fertilizer 21-0-12 (granular, commercially available from Lebanon Seaboard Corporation, Lebanon, Pa.) and Milorganite 6-2-0 (granular, commercially available from Milorganite, Milwaukee, Wis.). The fertilizer compositions were applied to the turf grass prior to winter dormancy of the turf at a rate equivalent to supplying about 1.0 pounds of nitrogen (N) per 1000 square feet. Each of the fertilizer compositions were applied at substantially equal rates of pounds (lbs) of nitrogen (N) per 1000 square feet. Table 1 illustrates the response of green height (i.e., the height of grass on golf course green), creeping bentgrass to fertilization using various exemplary fertilizers of the present invention, taken about two weeks after application of the fertilizer. The letters in the Color and Injury columns correspond to Duncan's Multiple Range Test. Numbers (means) in a column followed by the same letter are not statistically different at P=0.05.

[3] = system: fairway height, creeping bentgrass; test: Color rating of fairway height creeping bentgrass after fertilization (Example 6)
Procedure: as §1

[4] = system: lawn height, Kentucky bluegrass; test: Injury rating of lawn height Kentucky bluegrass after fertilization (Example 5)
Procedure: In this Example, the efficacy of fertilizers on lawn height, Kentucky bluegrass was examined. Fertilizer compositions according to several embodiments of the present disclosure were prepared and compared to the commercial fertilizer products, urea 46-0-0 (granular) fertilizer, Lebanon fertilizer 21-0-12 (granular, commercially available from Lebanon Seaboard Corporation, Lebanon, Pa.) and Milorganite 6-2-0 (granular, commercially available from Milorganite, Milwaukee, Wis.). The fertilizer compositions were applied to the turf grass prior to winter dormancy at a rate equivalent to supplying about 1.0 pounds of nitrogen (N) per 1000 square feet. Each of the fertilizer compositions were applied at substantially equal rates of lbs of nitrogen (N) per 1000 square feet. Table 2 illustrates the response of lawn height, Kentucky bluegrass to fertilization using various exemplary fertilizers of the present invention, taken about two weeks after application of the fertilizer. The letters in the Color and Injury columns correspond to Duncan's Multiple Range Test.

[5] = 1.09 Lbs. product/1000 square feet
[6] = 2.17 Lbs. product/1000 square feet
[7] = 6.51 Lbs. product/1000 square feet

`NC(N)=O` [Urea, urea, reference compound] was tested, and the “Injury 1-9 (9 = no injury)” value [1, 5] was 8.7^a,b, the “Injury 1-9 (9 = no injury)” value [1, 6] was 7.7^a,b and the “Injury 1-9 (9 = no injury)” value [1, 7] was 8.7^a,b. For the same molecule, the “Color 1-9 (9 = dark green)” value [2, 5] was 6.7^a,b,c, the “Color 1-9 (9 = dark green)” value [2, 6] was 6.7^a,b,c and the “Color 1-9 (9 = dark green)” value [2, 7] was 6.0^d,c. The “Color 1-9 (9 = dark green)” value [3, 5] was 6.7, the “Color 1-9 (9 = dark green)” value [3, 6] was 7.0 and the “Color 1-9 (9 = dark green)” value [3, 7] was 7.7. The “Injury 1-9 (9 = no injury)” value [4, 5] was 8.3, the “Injury 1-9 (9 = no injury)” value [4, 6] was 8.7 and the “Injury 1-9 (9 = no injury)” value [4, 7] was 8.7.
